In brackets after ≈: the same amount, converted by molar mass. Residues, ends and D or L forms follow the SMILES beside them.
Experiments:
Format in all cases: cell-based
[1] = tested on: Pseudomonas aeruginosa PAO1 strain H103; details: PAO1
Method: The biological activity of the peptides can be determined by standard methods known to those of skill in the art, such as “minimal inhibitory concentration (MIC)” assay described in the present examples, whereby the lowest concentration at which no change in OD is observed for a given period of time is recorded as MIC.
(§1) Minimal inhibitory concentration (MIC) determination. The MIC of the peptides were measured using a modified broth microdilution method in Mueller Hinton (MH) medium (Wu M, Hancock R E W. 1999. Interaction of the cyclic antimicrobial cationic peptide bactenecin with the outer and cytoplasmic membrane. J Biol Chem 274, 29-35). Briefly, the peptides were dissolved and stored in glass vials. The assay was performed in sterile 96-well polypropylene microtitre plates were used. Serial dilutions of the peptides to be assayed were performed in 0.01% acetic acid (Fisher) containing 0.2% bovine serum albumin (Boehringer Mannheim GmbH) at 10× the desired final concentration. Ten microlitres of the 10× peptides were added to each well of a 96-well polypropylene plate containing 90 μl of MH media per well. Bacteria were added to the plate from an overnight culture at 2-7×10^5 colony forming units/ml and incubated over night at 37° C. The MIC was taken as the concentration at which no growth was observed.
(§2) Strains. For the killing assay a mini-Tn5-lux mutant in Pseudomonas aeruginosa H103 was used. The strain is called H1001 and contains a fliC::luxCDABE transcriptional fusion resulting in constitutive expression of luciferase. The bacterial strains used for the antimicrobial activity assays included Escherichia coli UB1005 (F-, nalA37, metB1), a wild-type Salmonella enterica ssp. typhimurium (S. typhimurium), wild-type Pseudomonas aeruginosa PAO1 strain H103, Enterococcus faecalis ATCC29212, Staphylococcus aureus ATCC25923, and a clinical isolate of Staphylococcus epidermidis obtained from Dr. D. Speert (Department of Medicine, University of British Columbia). Antifungal activity was tested using a lab isolate of Candida albicans obtained from Dr. B. Dill (Department of Microbiology and Immunology, University of British Columbia).

[2] = tested on: Enterococcus faecalis ATCC29212; details: ATCC29212
Method: as §1, §2

[3] = tested on: Escherichia coli UB1005; details: UB1005
Method: as §1, §2

[4] = tested on: Staphylococcus aureus ATCC25923; details: ATCC25923
Method: as §1, §2

[5] = tested on: clinical isolate of Staphylococcus epidermidis; details: clinical isolate of
Method: as §1, §2

[6] = tested on: lab isolate of Candida albicans; details: lab isolate of
Method: as §1, §2

[7] = tested on: wild-type Salmonella enterica ssp. typhimurium
Method: as §1, §2

| SMILES | MIC P. aerug [1] | MIC E. faecalis [2] | MIC E. coli [3] | MIC S. aureus [4] | MIC S. epi. [5] | MIC C. albicans [6] | MIC S. typhi [7] |
| --- | --- | --- | --- | --- | --- | --- | --- |
| CC[C@H](C)[C@H](NC(=O)[C@H](CCCNC(=N)N)NC(=O)[C@H](CC(C)C)NC(=O)[C@H](CCCNC(=N)N)NC(=O)[C@@H](N)CCC(N)=O)C(=O)N[C@@H](CCCNC(=N)N)C(=O)N[C@H](C(=O)N[C@@H](C)C(=O)N[C@H](C(=O)N[C@H](C(=O)N[C@@H](CCCNC(=N)N)C(=O)N[C@@H](C)C(N)=O)[C@@H](C)CC)C(C)C)C(C)C [HH1, QRLRIRVAVIRA] (H-QRLRIRVAVIRA-NH2) | 50 µg/mL (≈ 34.5 µM) | 50 µg/mL (≈ 34.5 µM) | 6 µg/mL (≈ 4.14 µM) | 50 µg/mL (≈ 34.5 µM) | 12 µg/mL (≈ 8.28 µM) | 25 µg/mL (≈ 17.2 µM) | 25 µg/mL (≈ 17.2 µM) |
| CC[C@H](C)[C@H](NC(=O)[C@H](CCCNC(=N)N)NC(=O)[C@H](CC(C)C)NC(=O)[C@H](CCC(N)=O)NC(=O)[C@@H](N)C(C)C)C(=O)N[C@@H](CCCNC(=N)N)C(=O)N[C@H](C(=O)N[C@@H](C)C(=O)N[C@H](C(=O)N[C@H](C(=O)N[C@@H](CCCNC(=N)N)C(=O)N[C@@H](C)C(N)=O)[C@@H](C)CC)C(C)C)C(C)C [HH2, VQLRIRVAVIRA] (H-VQLRIRVAVIRA-NH2) | >50 µg/mL | 50 µg/mL (≈ 35.9 µM) | 6 µg/mL (≈ 4.31 µM) | 50 µg/mL (≈ 35.9 µM) | 12 µg/mL (≈ 8.62 µM) | 25 µg/mL (≈ 17.9 µM) | 12 µg/mL (≈ 8.62 µM) |
| CC[C@H](C)[C@H](NC(=O)[C@H](CCCNC(=N)N)NC(=O)[C@H](Cc1ccccc1)NC(=O)[C@H](CCCNC(=N)N)NC(=O)[C@@H](N)C(C)C)C(=O)N[C@@H](CCCNC(=N)N)C(=O)N[C@H](C(=O)N[C@@H](C)C(=O)N[C@H](C(=O)N[C@H](C(=O)N[C@@H](CCCNC(=N)N)C(=O)N[C@@H](C)C(N)=O)[C@@H](C)CC)C(C)C)C(C)C [HH3, VRFRIRVAVIRA] (H-VRFRIRVAVIRA-NH2) | 6 µg/mL (≈ 4.12 µM) | 25 µg/mL (≈ 17.2 µM) | 1.6 µg/mL (≈ 1.1 µM) | 12 µg/mL (≈ 8.25 µM) | 1.6 µg/mL (≈ 1.1 µM) | 6 µg/mL (≈ 4.12 µM) | 6 µg/mL (≈ 4.12 µM) |
| CC[C@H](C)[C@H](NC(=O)[C@H](CCCNC(=N)N)NC(=O)[C@H](Cc1c[nH]c2ccccc12)NC(=O)[C@H](CCCNC(=N)N)NC(=O)[C@@H](N)C(C)C)C(=O)N[C@@H](CCCNC(=N)N)C(=O)N[C@H](C(=O)N[C@@H](C)C(=O)N[C@H](C(=O)N[C@H](C(=O)N[C@@H](CCCNC(=N)N)C(=O)N[C@@H](C)C(N)=O)[C@@H](C)CC)C(C)C)C(C)C [HH4, VRWRIRVAVIRA] (H-VRWRIRVAVIRA-NH2) | 6 µg/mL (≈ 4.02 µM) | 12 µg/mL (≈ 8.03 µM) | 1.6 µg/mL (≈ 1.07 µM) | 12 µg/mL (≈ 8.03 µM) | 1.6 µg/mL (≈ 1.07 µM) | 12 µg/mL (≈ 8.03 µM) | 6 µg/mL (≈ 4.02 µM) |
| CC[C@H](C)[C@H](NC(=O)[C@H](Cc1c[nH]c2ccccc12)NC(=O)[C@H](CC(C)C)NC(=O)[C@H](CCCNC(=N)N)NC(=O)[C@@H](N)C(C)C)C(=O)N[C@@H](CCCNC(=N)N)C(=O)N[C@H](C(=O)N[C@@H](C)C(=O)N[C@H](C(=O)N[C@H](C(=O)N[C@@H](CCCNC(=N)N)C(=O)N[C@@H](C)C(N)=O)[C@@H](C)CC)C(C)C)C(C)C [HH5, VRLWIRVAVIRA] (H-VRLWIRVAVIRA-NH2) | >50 µg/mL | 25 µg/mL (≈ 17.2 µM) | 6 µg/mL (≈ 4.14 µM) | 50 µg/mL (≈ 34.5 µM) | 3 µg/mL (≈ 2.07 µM) | 50 µg/mL (≈ 34.5 µM) | >50 µg/mL |
| CC[C@H](C)[C@H](NC(=O)[C@H](CCCNC(=N)N)NC(=O)[C@H](CC(C)C)NC(=O)[C@H](CCCNC(=N)N)NC(=O)[C@@H](N)C(C)C)C(=O)N[C@@H](CCCNC(=N)N)C(=O)N[C@H](C(=O)N[C@@H](Cc1c[nH]c2ccccc12)C(=O)N[C@H](C(=O)N[C@H](C(=O)N[C@@H](CCCNC(=N)N)C(=O)N[C@@H](C)C(N)=O)[C@@H](C)CC)C(C)C)C(C)C [HH6, VRLRIRVWVIRA] (H-VRLRIRVWVIRA-NH2) | 12 µg/mL (≈ 7.81 µM) | 6 µg/mL (≈ 3.91 µM) | 3 µg/mL (≈ 1.95 µM) | 6 µg/mL (≈ 3.91 µM) | 1.6 µg/mL (≈ 1.04 µM) | 25 µg/mL (≈ 16.3 µM) | 12 µg/mL (≈ 7.81 µM) |
| CC[C@H](C)[C@H](NC(=O)[C@H](CCCNC(=N)N)NC(=O)[C@H](CC(C)C)NC(=O)[C@H](CCCNC(=N)N)NC(=O)[C@@H](N)C(C)C)C(=O)N[C@@H](CCCNC(=N)N)C(=O)N[C@H](C(=O)N[C@@H](C)C(=O)N[C@H](C(=O)N[C@@H](CCCNC(=N)N)C(=O)N[C@@H](CCCNC(=N)N)C(=O)N[C@@H](C)C(N)=O)C(C)C)C(C)C [HH7, VRLRIRVAVRRA] (H-VRLRIRVAVRRA-NH2) | 12 µg/mL (≈ 8.2 µM) | 25 µg/mL (≈ 17.1 µM) | 6 µg/mL (≈ 4.1 µM) | 12 µg/mL (≈ 8.2 µM) | 1.6 µg/mL (≈ 1.09 µM) | 6 µg/mL (≈ 4.1 µM) | 6 µg/mL (≈ 4.1 µM) |
| CC[C@H](C)[C@H](NC(=O)[C@H](CCCNC(=N)N)NC(=O)[C@H](CC(C)C)NC(=O)[C@H](CCCNC(=N)N)NC(=O)[C@@H](N)C(C)C)C(=O)N[C@@H](CCCNC(=N)N)C(=O)N[C@H](C(=O)N[C@@H](C)C(=O)N[C@H](C(=O)N[C@H](C(=O)N[C@@H](CCCNC(=N)N)C(=O)N[C@@H](CCCCN)C(N)=O)[C@@H](C)CC)C(C)C)C(C)C [HH8, VRLRIRVAVIRK] (H-VRLRIRVAVIRK-NH2) | 6 µg/mL (≈ 4.06 µM) | 12 µg/mL (≈ 8.12 µM) | 3 µg/mL (≈ 2.03 µM) | 6 µg/mL (≈ 4.06 µM) | 1.6 µg/mL (≈ 1.08 µM) | 3 µg/mL (≈ 2.03 µM) | 6 µg/mL (≈ 4.06 µM) |
| CC[C@H](C)[C@H](NC(=O)[C@H](CCCNC(=N)N)NC(=O)[C@H](CC(C)C)NC(=O)[C@H](CCC(N)=O)NC(=O)[C@@H](N)C(C)C)C(=O)N[C@@H](CCCNC(=N)N)C(=O)N[C@H](C(=O)N[C@@H](CCCNC(=N)N)C(=O)N[C@H](C(=O)N[C@H](C(=O)N[C@@H](CCCNC(=N)N)C(=O)N[C@@H](CCCCN)C(N)=O)[C@@H](C)CC)C(C)C)C(C)C [HH9, VQLRIRVRVIRK] (H-VQLRIRVRVIRK-NH2; N-terminus assumed) | 6 µg/mL (≈ 3.91 µM) | 12 µg/mL (≈ 7.82 µM) | 3 µg/mL (≈ 1.95 µM) | 12 µg/mL (≈ 7.82 µM) | 1.6 µg/mL (≈ 1.04 µM) | 6 µg/mL (≈ 3.91 µM) | 6 µg/mL (≈ 3.91 µM) |
| CC[C@H](C)[C@H](NC(=O)[C@H](CCCNC(=N)N)NC(=O)[C@H](Cc1ccccc1)NC(=O)[C@H](CCCNC(=N)N)NC(=O)[C@@H](N)CCCCN)C(=O)N[C@@H](CCCNC(=N)N)C(=O)N[C@H](C(=O)N[C@@H](C)C(=O)N[C@H](C(=O)N[C@@H](CCCNC(=N)N)C(=O)N[C@@H](CCCNC(=N)N)C(=O)N[C@@H](C)C(N)=O)C(C)C)C(C)C [HH10, KRFRIRVAVRRA] (H-KRFRIRVAVRRA-NH2; N-terminus assumed) | 25 µg/mL (≈ 16.4 µM) | >50 µg/mL | 6 µg/mL (≈ 3.93 µM) | 25 µg/mL (≈ 16.4 µM) | 3.1 µg/mL (≈ 2.03 µM) | 12 µg/mL (≈ 7.86 µM) | >50 µg/mL |

Reference: patent US8343475B2, “Small cationic antimicrobial peptides” (priority 2006, dated 2013)
